In article PMC11619365, “Histone deacetylase 2 and 3 of Sarcoptes scabiei: characterization of a potential drug target” (Microbiology Spectrum, 2024):

What was measured:
Assay type in all cases: biochemical
rSsHDAC-3 [1] = molecular target: T1, rSsHDAC-3 (Sarcoptes scabiei, UniProt A0A834REN1); assay: fluorogenic trypsin-coupled deacetylase assay
T1 construct: ORF 411 residues (1,236 bp; amplified fragment printed as around 1,000 bp), pET32a(+) N-terminal Trx/His tag kept (about 18 kDa), 63 kDa on SDS-PAGE, E. coli BL21(DE3), soluble, Ni-NTA; no co-repressor partner
T1 sequence (A0A834REN1 1-411): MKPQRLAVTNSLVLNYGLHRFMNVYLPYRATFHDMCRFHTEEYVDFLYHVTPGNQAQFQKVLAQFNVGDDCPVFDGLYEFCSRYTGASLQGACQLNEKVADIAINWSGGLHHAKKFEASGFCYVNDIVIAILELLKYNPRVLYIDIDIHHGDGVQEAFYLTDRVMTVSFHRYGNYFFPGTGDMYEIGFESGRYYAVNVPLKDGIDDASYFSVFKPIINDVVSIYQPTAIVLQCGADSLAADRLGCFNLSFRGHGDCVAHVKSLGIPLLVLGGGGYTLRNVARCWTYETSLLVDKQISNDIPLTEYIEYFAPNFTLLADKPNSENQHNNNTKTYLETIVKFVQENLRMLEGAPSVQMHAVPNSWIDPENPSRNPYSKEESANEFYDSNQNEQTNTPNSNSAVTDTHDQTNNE

rSsHDAC-2 = molecular target: T2, rSsHDAC-2 (Sarcoptes scabiei, UniProt A0A834RGW6); assay: fluorogenic trypsin-coupled deacetylase assay; details: Boc-Lys(ε-Ac)-AMC substrate buffer 100 µM (25 of 50 µL), HEPES pH 8.0, 1 mM MgCl2, 37 °C, 2 h; inhibitor concentration as printed, but 1 µL of it added to 50 µL, so final concentration unclear
T2 sequence (A0A834RGW6 1-304): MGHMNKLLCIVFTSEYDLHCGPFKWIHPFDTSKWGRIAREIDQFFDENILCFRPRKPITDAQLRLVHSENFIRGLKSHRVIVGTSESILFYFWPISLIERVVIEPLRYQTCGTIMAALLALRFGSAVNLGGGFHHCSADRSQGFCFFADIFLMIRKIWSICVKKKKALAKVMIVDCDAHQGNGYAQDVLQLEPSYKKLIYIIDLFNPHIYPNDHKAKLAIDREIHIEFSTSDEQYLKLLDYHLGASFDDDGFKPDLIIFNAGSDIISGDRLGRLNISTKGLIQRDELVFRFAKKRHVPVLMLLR

rSsHDAC-3 [2] = molecular target: T1, rSsHDAC-3; assay: fluorogenic trypsin-coupled deacetylase assay (excitation […] nm, emission […] nm); details: HEPES pH 8.0, 1 mM MgCl2, 37 °C, 2 h

**Q.** How did the inhibition at 10 µM (rSsHDAC-3 [1]) turn out when `Nc1cc(F)ccc1NC(=O)/C=C/c1cnn(C/C=C/c2ccccc2)c1` [RGFP966] was run?
**A.** 68.9%

**Q.** For `COc1ccccc1NC(=O)NCc1ccc(C(=O)NO)cc1` [Elevenostat], which “% inhibition at 10 μM” value (rSsHDAC-2) is on record?
**A.** 81.2%

**Q.** For `CC(=O)NCCCC[C@H](NC(=O)OC(C)(C)C)C(=O)Nc1ccc2c(C)cc(=O)oc2c1` [Boc-Lys(ε-Ac)-AMC], which “fluorogenic trypsin-coupled deacetylase assay (excitation 355 nm, emission 460 n)” value (rSsHDAC-3 [2]) is on record?
**A.** whereas the intensity in the rSsHDAC-3 group increased significantly
